The values that follow come from patent publication US9546138B2, “Pyridone derivatives and uses thereof in the treatment of tuberculosis” (priority 2012, dated 2017).

Some results are limits rather than exact numbers.

For experiment [1], the system named is Mtb H37Rv resistant mutant 529-5X-108-B2 (inhA S94A). The format is cell-based, Mycobacterium tuberculosis.
The test system of experiment [2] is Mtb H37Rv resistant mutant 529-5X-108-S3 (inhA D148G). The format is cell-based, Mycobacterium tuberculosis.
Experiment [3] relates to Mtb H37Rv resistant mutant 529-5X-108-B4 (inhA G96V). In kind it is cell-based, Mycobacterium tuberculosis.
Experiment [4] relates to BCG-529-108-10X-2 (InhA M161V). The format is cell-based, M bovis BCG.
Experiment [5] has as its system Mtb H37Rv resistant mutant 529-10X-108-B6. In kind it is cell-based, Mycobacterium tuberculosis.
For experiment [6], the system named is Mtb H37Rv resistant mutant 529-5X-108-S1 (inhA D148G). The format is cell-based, Mycobacterium tuberculosis.
Experiment [7] deals with BCG-916-108-25X-B1 (InhA M161I). The format is cell-based, M bovis BCG.
In experiment [8] the test system is Mtb H37Rv resistant mutant 529-10X-107-B8 (inhA D148E). The format is cell-based, Mycobacterium tuberculosis.

As to `CC1(C)CCC(Cc2cc(O)c(-c3ccccc3)c(=O)[nH]2)CC1` [PD10, 6-((4,4-dimethylcyclohexyl)methyl)-4-hydroxy-3-phenylpyridin-2(1H)-one], the “Compound MIC50” value in experiment [1] was 0.78 µM; in experiment [2], 0.38 µM; in experiment [3] it was greater than 5.0 µM; in experiment [4] it was 3.02 µM; in experiment [5] it was greater than 5.0 µM; in experiment [6] it was 0.29 µM. Besides, the “Compound MIC50” value is 3.2 µM in experiment [7] and greater than 5.0 µM in experiment [8].
As to `CC(C)Cc1cc(O)c(-c2ccccc2)c(=O)[nH]1` [PD12, 4-hydroxy-6-isobutyl-3-phenylpyridin-2(1H)-one], the “Compound MIC50” value in experiment [1] is greater than 40 µM; in experiment [2] it was greater than 40 µM; in experiment [3] it was greater than 40 µM; in experiment [4] it was 27.88 µM; in experiment [5], greater than 40 µM; in experiment [6], greater than 40 µM. The “Compound MIC50” value in experiment [7] is 21.52 µM; in experiment [8] it was greater than 40 µM.
Take `CCc1cc(C(N)=S)ccn1` [Ethionamide, reference compound]: the “Compound MIC50” value in experiment [1] is 9.74 µM; in experiment [3] it was 1.32 µM; in experiment [4] it was greater than 60 µM; in experiment [5], 1.41 µM; in experiment [6] it was 1.53 µM; in experiment [7], greater than 60 µM. The “Compound MIC50” value in experiment [8] was 1.91 µM.
`NNC(=O)c1ccncc1` [Isoniazid, isoniazid, reference compound]: the “Compound MIC50” value in experiment [1] was 0.86 µM; in experiment [2], 0.15 µM; in experiment [3] it was 0.09 µM; in experiment [4], 1.27 µM; in experiment [5] it was 0.11 µM; in experiment [6], 0.15 µM. Further, the “Compound MIC50” value in experiment [7] is 1.48 µM; in experiment [8], 0.31 µM.
For `O=c1[nH]c(CC2CCCCC2)cc(O)c1-c1ccccc1` [PD2, 6-(cyclohexylmethyl)-4-hydroxy-3-phenylpyridin-2(1H)-one], the “Compound MIC50” value in experiment [1] is 4.04 µM; in experiment [2] it was 1.73 µM; in experiment [3] it was 14.60 µM; in experiment [5] it was greater than 40 µM; in experiment [6], 1.46 µM; in experiment [8], greater than 40 µM.
